{"source": "paper PMC6814738", "about": "“Bacterial MgrB peptide activates chemoreceptor Fpr3 in mouse accessory olfactory system and drives avoidance behaviour” (Nature Communications, 2019)", "tested_on": "vomeronasal sensory neurons (VSNs)", "test": "Density of responding VSN knobs in mice of various genotypes, Rhod-2 Ca2+ imaging (Fig. 7a, b)", "type": "cell-based, mouse", "settings": "f-MKKFRW 1 µM or PUM; for density of responding knobs: mean ± s.d.", "excerpt": "Mice (6–20 week old, either sex) were euthanized by CO2 inhalation according to institutional guidelines. After decapitation, the skin was removed from the skull, the mandible was cut off and the cranium was opened by a sagittal cut, 1–2-mm right-lateral in parallel to the midline. The palate and the right incisor were removed and the hemisected skull was mounted in low-melting agarose (4%). The bony capsule of the VNO was opened with fine forceps and the nonsensory epithelium was stripped off. Tissue and cell debris were gently washed off, and the en face preparation was superfused with physiological S1 solution (120 mM NaCl, 25 mM NaHCO3, 5 mM KCl, 1 mM MgSO4, 1 mM CaCl2, 10 mM glucose, 5 mM BES, pH 7.3) saturated with carbogen (95% O2, 5% CO2).\nLoading of the VNE with Rhod-2/AM (5–15 µM, 1 h) was performed in S1 solution under carbogen atmosphere at RT. Images were taken with an upright confocal laser scanning microscope (Leica TCS SP5 II, 20x water immersion objective HCX APO L20x/1.0w) equipped with Ar and He/Ne lasers. GFP was excited at 488 nm, Venus at 514 nm and Rhod-2 at 543 nm. Emission was measured at 490–520 nm (GFP), 520–600 nm (Venus) and 560–680 nm (Rhod-2). To minimise interference between Venus and Rhod-2 fluorescence, images were taken sequentially (sample interval per image, 3–4 s). Peptide stimuli were applied to the VNE surface with a local perfusion system which, when positioned close to the anterior end of the VNO, produced a continuous solution stream from rostral to caudal along the VNO axis. Data analysis was performed with the open source software ImageJ (NIH). Ca^2+ responses of individual dendritic knobs were normalised to the knob resting fluorescence level obtained before stimulation (ratio Fx/F0, Fx = actual fluorescence; F0 = mean fluorescence of 3–5 images before ligand application). Mapping was performed by superimposing Ca^2+ peak images onto images showing intrinsic fluorescence for specific markers.\nPredator urine mix was composed of urine from mountain lion, coyote, bobcat, fox and marten (at equal volume ratios), purchased from Predatorpee (USA) and Kieferle (Germany). The fMet peptides were as described above. Stimuli were applied in S2 solution (140 mM NaCl, 5 mM KCl, 10 mM HEPES, 1 mM CaCl2, 1 mM MgCl2, 10 mM glucose, pH 7.3 with NaOH).\nFor calculations of VSN knob density, we analysed randomly selected VNE areas, each containing several hundred knobs. The mean density of OMP-GFP+ knobs was 11.25 knobs/100 µm². Through the knob density and the VNE surface area, an estimate of the total number of VSNs per VNO can be made. Assuming a mean lumen diameter of 450 µm, a length of 2 mm and an end-to-end semilunar cross-sectional shape of the VNO, a number of ~150,000 VSNs (per side) can be estimated. This number is consistent with our previous estimates.", "key": {"[1]": {"settings": "B6, B2m-Venus+/− and NP2∆+/− mice pooled, n = 14 mice"}}, "note": "Entries after “also recorded” stand apart in the source; their conditions may differ. Peptide text beside a SMILES is read from it. * marks the point of attachment. For = O=C*", "data": [{"smiles": "CSCC[C@H](NC=O)C(=O)N[C@@H](CCCCN)C(=O)N[C@@H](CCCCN)C(=O)N[C@@H](Cc1ccccc1)C(=O)N[C@@H](CCCNC(=N)N)C(=O)N[C@@H](Cc1c[nH]c2ccccc12)C(=O)O", "note": "[f-MKKFRW] (For-MKKFRW-OH)", "values": [{"measurement": "VSN Ca2+ responses, in words", "setting": "129Sv mice", "result": "no responses; also recorded: fail to respond"}, {"measurement": "density of responding knobs", "setting": "B2m-Venus +/−", "result": "0.2 ± 0.1", "unit": "%"}, {"measurement": "density of responding knobs", "setting": "B6", "result": "0.12 ± 0.04", "unit": "%"}, {"measurement": "density of responding knobs", "setting": "NP2∆ +/−", "result": "0.2 ± 0.09", "unit": "%"}, {"measurement": "VSN Ca2+ responses, in words", "setting": "Trpc2 −/− mice", "result": "absent; also recorded: fail to respond"}, {"measurement": "VSN Ca2+ responses, in words", "setting": "cGαo −/− mice", "result": "absent; also recorded: fail to respond"}, {"measurement": "density of responding knobs, mean", "setting": "[1]", "result": "0.16 ± 0.08", "unit": "%"}, {"measurement": "density of responding knobs, range", "setting": "[1]", "result": "0.07 to 0.29", "unit": "%"}, {"measurement": "VSN Ca2+ responses, in words", "setting": "∆Fpr3-lacZ −/− mice", "result": "absent; also recorded: fail to respond"}]}]}
